In patent publication US11607446B2, “Personalized immunotherapy against several neuronal and brain tumors” (Immatics Biotechnologies GmbH, priority 2013, dated 2023):

Tested on: CD8+ T cells
Experiment: In vitro immunogenicity of HLA-A*24 class I peptides: in vitro T-cell priming with aAPCs loaded with peptide/MHC complexes and anti-CD28 antibody, pMHC multimer readout
Type: cell-based, human
Details: given as a class symbol; for Donors: share of positive donors in the in vitro immunogenicity experiments; for Wells: share of positive wells in the in vitro immunogenicity experiments
Experimental: In order to obtain information regarding the immunogenicity of the TUMAPs of the present invention, we performed investigations using an in vitro T-cell priming assay based on repeated stimulations of CD8+ T cells with artificial antigen presenting cells (aAPCs) loaded with peptide/MHC complexes and anti-CD28 antibody.
Isolated CD8+ lymphocytes or PBMCs were incubated until use in T-cell medium (TCM) consisting of RPMI-Glutamax (Invitrogen, Karlsruhe, Germany) supplemented with 10% heat inactivated human AB serum (PAN-Biotech, Aidenbach, Germany), 100 U/ml Penicillin/100 μg/ml Streptomycin (Cambrex, Cologne, Germany), 1 mM sodium pyruvate (CC Pro, Oberdorla, Germany), 20 μg/ml Gentamycin (Cambrex). 2.5 ng/ml IL-7 (PromoCell, Heidelberg, Germany) and 10 U/ml IL-2 (Novartis Pharma, Nurnberg, Germany) were also added to the TCM at this step. Generation of pMHC/anti-CD28 coated beads, T-cell stimulations and readout was performed in a highly defined in vitro system using four different pMHC molecules per stimulation condition and 8 different pMHC molecules per readout condition. All pMHC complexes used for aAPC loading and cytometric readout were derived from UV-induced MHC ligand exchange with minor modifications. In order to determine the amount of pMHC monomer obtained by exchange we performed streptavidin-based sandwich ELISAs according to (Rodenko et al., 2006). The purified co-stimulatory mouse IgG2a anti human CD28 Ab 9.3 (Jung et al., 1987) was chemically biotinylated using Sulfo-N-hydroxysuccinimidobiotin as recommended by the manufacturer (Perbio, Bonn, Germany). Beads used were 5.6 μm diameter streptavidin coated polystyrene particles (Bangs Laboratories, Illinois, USA).
800.000 beads/200 μl were coated in 96-well plates in the presence of 4×12.5 ng different biotin-pMHC, washed and 600 ng biotin anti-CD28 were added subsequently in a volume of 200 μl. Stimulations were initiated in 96-well plates by co-incubating 1×10^6 CD8+ T cells with 2×10^5 washed coated beads in 200 μl TCM supplemented with 5 ng/ml IL-12 (PromoCell) for 3-4 days at 37° C. Half of the medium was then exchanged by fresh TCM supplemented with 80 U/ml IL-2 and incubating was continued for 3-4 days at 37° C. This stimulation cycle was performed for a total of three times, with 12 individual wells per condition For the pMHC multimer readout using 8 different pMHC molecules per condition, a two-dimensional combinatorial coding approach was used as previously described (Andersen et al., 2012) with minor modifications encompassing coupling to 5 different fluorochromes. Finally, multimeric analyses were performed by staining the cells with Live/dead near IR dye (Invitrogen, Karlsruhe, Germany), CD8-FITC antibody clone SK1 (BD, Heidelberg, Germany) and fluorescent pMHC multimers. For analysis, a BD LSRII SORP cytometer equipped with appropriate lasers and filters was used. Peptide specific cells were calculated as percentage of total CD8+ cells. Evaluation of multimeric analysis was done using the FlowJo software (Tree Star, Oregon, USA). In vitro priming of specific multimer+ CD8+ lymphocytes was detected by comparison to irrelevant control stimulations.
Exemplary flow cytometry results after TUMAP-specific multimer staining for two peptides of the invention are shown in FIG. 4 together with corresponding negative controls.

Substance | Donors | Wells
YYHFIFTTL (listed as Homo sapiens) [GRIK3-002] | ++++ (>70% = ++++) | + (<20% = +)
YYLDKSVSI (listed as Homo sapiens) [SCARA3-002] | ++ (20%-49 % = ++) | + (<20% = +)
YYPGVILGF (listed as Homo sapiens) [TMEM255A-001] | ++ (20%-49 % = ++) | + (<20% = +)
YYQIRSSQL (listed as Homo sapiens) [EXOC7-001] | ++ (20%-49 % = ++) | + (<20% = +)
YYTVRNFTL (listed as Homo sapiens) [PTP-014] | ++ (20%-49 % = ++) | + (<20% = +)
ZNFS3-001 (RYLPSSVFL; listed as Homo sapiens) | +++ (50%-70% = +++) | ++ (20%-49 % = ++)
